# Read-outs that look alike come from different tables or passages of the source.
# Assays:
# HL60/VCR = assay: Cell viability, panel of AML cell lines; format: cell-based; conditions: Homo sapiens, HL60/VCR cells (drug resistant variant)
# Experimental: (§1) Representative human AML cell lines (FIG. 2A; upper and lower panels) HL60/VCR and (FIG. 2B; upper and lower panels) OCI-AML2 were treated with SACLAC for 24 and 48 hours. Viability was assessed by MTS assay at 24 and 48 hours and apoptosis was assessed by flow cytometry at 48 hours. Upper panels represent % viability and lower panels indicate % apoptosis.
# (§2) Two representative human-derived AML cell lines, HL60/VCR and OCI-AML2, are shown. These studies have been expanded to a large panel of additional human AML cell lines (n=30, Table 1).
# KGI/ABTR = assay: Cell viability, panel of AML cell lines; format: cell-based; conditions: Homo sapiens, KGI/ABTR cells
# Experimental: as §1, §2
# KGIa/ABTR = assay: Cell viability, panel of AML cell lines; format: cell-based; conditions: Homo sapiens, KGIa/ABTR cells
# Experimental: as §1, §2
# SKNO1 = assay: Cell viability, panel of AML cell lines; format: cell-based; conditions: Homo sapiens, SKNO-1, SKNO1 cells
# Experimental: as §1, §2
# SET2 = assay: Cell viability, panel of AML cell lines; format: cell-based; conditions: Homo sapiens, SET-2, SET2 cells
# Experimental: as §1, §2
# HL60 = assay: Cell viability, panel of AML cell lines; format: cell-based; conditions: Homo sapiens, HL-60, HL60 cells
# Experimental: as §1, §2
# ML2 = assay: Cell viability, panel of AML cell lines; format: cell-based; conditions: Homo sapiens, ML-2, ML2 cells
# Experimental: as §1, §2
# Kasumi-1 = assay: Cell viability, panel of AML cell lines; format: cell-based; conditions: Homo sapiens, Kasumi-1 cells
# Experimental: as §1, §2
# KGI = assay: Cell viability, panel of AML cell lines; format: cell-based; conditions: Homo sapiens, KGI cells
# Experimental: as §1, §2
# OCI-M2 = assay: Cell viability, panel of AML cell lines; format: cell-based; conditions: Homo sapiens
# Experimental: as §1, §2
# HEL = assay: Cell viability, panel of AML cell lines; format: cell-based; conditions: Homo sapiens, HEL cells
# Experimental: as §1, §2
# ME-1 = assay: Cell viability, panel of AML cell lines; format: cell-based; conditions: Homo sapiens, ME-1 cells
# Experimental: as §1, §2
# MOLM-14 = assay: Cell viability, panel of AML cell lines; format: cell-based; conditions: Homo sapiens, MOLM-14 cells
# Experimental: as §1, §2
# THP-1 = assay: Cell viability, panel of AML cell lines; format: cell-based; conditions: Homo sapiens, THP-1 cells
# Experimental: as §1, §2
# [1] = SACLAC serum/blood levels after i.p. or i.v. administration; format: in vivo, mouse
# Experimental: FIG. 7 graphically depicts SACLAC levels in mouse blood following administration intraperitoneally (i.p.) at 40 mg/kg body weight or intravenously (i.v.) at 5 mg/kg body weight. The ordinate represents Concentration (nM) and the abscissa Time (hours). DMSO (dimethyl sulfoxide) and β-HPCD (2-hydroxypropyl […]) represent the vehicle for SACLAC delivery.
# Serum concentrations of SACLAC were also determined following administration. (see FIG. 7). […] SACLAC was dissolved in dimethyl sulfoxide (DMSO) or 2-hydroxypropyl-β-cyclodextrin (β-HPCD). Serum levels were determined following injection of free SACLAC (i.p.—in DMSO at 40 mg/kg; or i.v.—5 mg/kg in β-HPCD). […] They also show our ability to generate and characterize in vitro functionality by modifying delivery and delivery systems, monitor PK and evolve our approaches based on experimental results in order to maximize in vivo efficacy.
# acid ceramidase (AC) = biological target: T1, acid ceramidase (AC) (Homo sapiens, UniProt Q13510); assay: LC/MS analysis of tryptic digests of AC incubated with SACLAC; format: binding; set-up: expressed in transfected cells; conditions: peptide C,T,S,I,V,A,E,D,K
# T1 sequence (Q13510 143-395 limits assumed): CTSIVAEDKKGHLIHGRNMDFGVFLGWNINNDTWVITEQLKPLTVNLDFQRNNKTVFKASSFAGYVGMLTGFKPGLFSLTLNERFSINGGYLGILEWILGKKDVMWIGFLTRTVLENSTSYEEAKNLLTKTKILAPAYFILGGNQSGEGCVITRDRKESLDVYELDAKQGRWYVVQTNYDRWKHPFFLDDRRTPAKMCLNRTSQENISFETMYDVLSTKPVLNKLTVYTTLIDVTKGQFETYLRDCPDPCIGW
# T1 sequence (Q13510 22-142 limits assumed): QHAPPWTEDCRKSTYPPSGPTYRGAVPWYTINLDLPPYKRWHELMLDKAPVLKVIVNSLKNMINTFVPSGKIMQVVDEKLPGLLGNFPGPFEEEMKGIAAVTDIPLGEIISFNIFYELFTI
# [2] = tested on: primary AML patient samples; assay: Colony formation of primary AML patient cells; format: cell-based, human; conditions: over several days
# Experimental: Multiple primary patient (Pt) AML cells were treated with various doses of SACLAC and assayed for apoptosis at 48 hours and colony formation over several days. […] The ordinate represents Colonies (as % of control) and the abscissa represents the concentration of SACLAC (μM). Unt=untreated; DMSO=dimethyl sulfoxide vehicle control.
# Further, effects on patient samples strongly support the potential for clinical relevance of SACLAC. […] Based on the data presented here, we propose that use of SACLAC for treatment of AML is novel and clinically promising.
# [3] = tested on: HL60/VCR and OCI-AML2 AML cell lines; assay: Apoptosis in AML cell lines by flow cytometry; format: cell-based, human; conditions: 48 hours, dose-dependent
# Experimental: as §1, §2
# [4] = Solubility in vehicles for i.v. drug delivery; format: physicochemical
smiles,measurement,setting,value
"CCCCCCCCCCCCCCC[C@@H](O)[C@H](CO)NC(=O)CCl [SACLAC, 2-chloro-N-((2S,3R)-1,3-dihydroxyoctadecan-2-yl)acetamide]",EC50,"HL60/VCR; 24 h, read-out: EC50 24 h",3.3 µM
same,EC50,"HL60/VCR; 48 h, read-out: EC50 48 h",2.4 µM
same,EC50,"KGI/ABTR; 24 h, read-out: EC50 24 h",5.4 µM
same,EC50,"KGI/ABTR; 48 h, read-out: EC50 48 h",4.1 µM
same,EC50,"KGIa/ABTR; 24 h, read-out: EC50 24 h",2.9 µM
same,EC50,"KGIa/ABTR; 48 h, read-out: EC50 48 h",2.7 µM
same,EC50,"SKNO1; 24 h, read-out: EC50 24 h",0.9 µM
same,EC50,"SKNO1; 48 h, read-out: EC50 48 h",0.8 µM
same,EC50,"SET2; 24 h, read-out: EC50 24 h",2.6 µM
same,EC50,"SET2; 48 h, read-out: EC50 48 h",3.3 µM
same,EC50,"HL60; 24 h, read-out: EC50 24 h",1.8 µM
same,EC50,"HL60; 48 h, read-out: EC50 48 h",1.2 µM
same,EC50,"ML2; 24 h, read-out: EC50 24 h",1.7 µM
same,EC50,"ML2; 48 h, read-out: EC50 48 h",1.8 µM
same,EC50,"Kasumi-1; 24 h, read-out: EC50 24 h",0.8 µM
same,EC50,"Kasumi-1; 48 h, read-out: EC50 48 h",0.8 µM
same,EC50,"KGI; 24 h, read-out: EC50 24 h",3.2 µM
same,EC50,"KGI; 48 h, read-out: EC50 48 h",2.7 µM
same,EC50,"OCI-M2; OCI-M2, 24 h, read-out: EC50 24 h",> 10 µM
same,EC50,"OCI-M2; OCI-M2, 48 h, read-out: EC50 48 h",> 10 µM
same,viability at 10 µM,"OCI-M2; OCI-M2 cells, 10 μM, read-out: viable cells at the highest tested dose",60%
same,EC50,"HEL; 24 h, read-out: EC50 24 h",1.2 µM
same,EC50,"HEL; 48 h, read-out: EC50 48 h",1.6 µM
same,EC50,"ME-1; 24 h, read-out: EC50 24 h",2.1 µM
same,EC50,"ME-1; 48 h, read-out: EC50 48 h",1.2 µM
same,EC50,"MOLM-14; 24 h, read-out: EC50 24 h",0.5 µM
same,EC50,"MOLM-14; 48 h, read-out: EC50 48 h",0.5 µM
same,EC50,"THP-1; 24 h, read-out: EC50 24 h",2.6 µM
same,EC50,"THP-1; 48 h, read-out: EC50 48 h",2.2 µM
same,uptake following i.p. injection,[1]; i.p. injection,suboptimal uptake
same,serum levels,"[1]; i.p., 40 mg/kg in DMSO",low serum levels
same,serum levels,"[1]; i.v., 5 mg/kg in β-HPCD, compared with i.p.",great improvement
same,covalent modification of AC peptide,acid ceramidase (AC),formation of the expected lipid modified peptide
same,colony formation,[2],substantially reduced colony formation
same,apoptosis,[3],induced apoptosis
same,solubility in vehicles for i.v. drug delivery,[4],low solubility

# — patent publication US11426371B2, “Compositions and methods for treating cancer” (University of Virginia Patent Foundation, priority 2017, dated 2022)
